Data: patent US20240262815A1, “HETEROARYL DERIVATIVE, METHOD FOR PREPARING SAME, AND PHARMACEUTICAL COMPOSITION COMPRISING SAME AS ACTIVE INGREDIENT” (VORONOI INC., priority 2021, published 2024)

Key:
SK-BR-3 cancer cells = test: Inhibitory activity against proliferation of SK-BR-3 cancer cells (CellTiter-Glo); type: cell-based; details: Homo sapiens, SK-BR-3, 120 h, ErbB2-overexpressing SK-BR-3 cells, 120 hours after treatment
How it was run: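 GI50 derived from % growth relative to control, measured by CellTiter-Glo luminescence after 120 h compound exposure (12 concentrations, 0.2 nM-5 μM final, n=3). BT-474 grown in RPMI-1640/20% FBS, SK-BR-3 in McCOY'S 5A/10% FBS; seeding 48 h pre-treatment.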

BT-474 cancer cells = test: Inhibitory activity against proliferation of BT-474 cancer cells (CellTiter-Glo); type: cell-based; details: Homo sapiens, BT-474 ErbB2-overexpressing cancer cells, 120 hours after treatment
Method: To evaluate the inhibitory activity of a compound according to the present invention against the proliferation of ErbB2-overexpressing cancer cells, the following experiment were performed.
10% FBS-added McCOY'S 5A was used for SK-BR-3 cancer cells. 20% FBS-added RPMI-1640 was used for BT-474 cancer cells. Transduced Ba/F3 cells were cultured in a RPMI-1640 medium to which 1 μg/ml puromycin (Invitrogen) was added.
48 hours before compound treatment, each type of the SK-BR-3 and BT-474 cells were seeded at 5,000 cells/well in a white clear bottom 96 well plate (Corning). The compound was diluted in dimethyl sulfoxide (SK-BR-3: 3-fold dilution, a total of 12 concentrations, BT-474: […], a total of 12 concentrations) and injected at 1 μl to have the final concentration of 0.2 nM to 5 μM. As for measurement of live cells, 120 hours after treatment with the compound, a CellTiter-Glo luminescent cell-viability reagent (Promega) was used to store the cells at room temperature for 10 minutes, followed by measurement of luminescence using a reader (SynergyNeo, Biotek). Each test was repeated three times.
The result values were calculated as a cell growth rate (%) compared to the control group. A graph was plotted using the GraphPad Prism version 8.3.0 program, and GI50 values were calculated.

Compound	GI50 (SK-BR-3 cancer cells)	GI50 (BT-474 cancer cells)
C=CC(=O)Nc1cc(Nc2cc(N3OCC[C@@H]3c3cccc(-c4ccccc4)c3)ncn2)c(OC)cc1N(C)CCN(C)C [Example 173, (R)-N-(5-((6-(3-([1,1′-biphenyl]-3-yl)isoxazolidin-2-yl)pyrimidin-4-yl)amino)-2-((2-(dimethylamino)-ethyl)(methyl)-amino)-4-methoxy-phenyl)acrylamide]	< 50 nM	< 50 nM
C=CC(=O)Nc1cc(Nc2cc(N3OCC[C@@H]3c3cccc(-c4ccccc4)c3)ncn2)c(OC)cc1N1CCO[C@H](C)C1 [Example 176, N-(5-((6-((R)-3-([1,1′-biphenyl]-3-yl)isoxazolidin-2-yl)pyrimidin-4-yl)-amino)-4-methoxy-2-((R)-2-methyl-morpholino)phen-yl)acrylamide]	< 50 nM	< 50 nM
C=CC(=O)Nc1cc(Nc2cc(N3OCCC3c3cccc(-c4cnc5ccnn5c4)c3)ncn2)c(OC)cc1N1CCN(C)CC1 (stereo not drawn) [Example 201, N-(4-methoxy-2-(4-methylpiper-azin-1-yl)-5-((6-(3-(3-(pyrazolo-[1,5-a]pyrimidin-6-yl)phenyl)-isoxazolidin-2-yl)-pyrimidin-4-yl)-amino)phenyl)-acrylamide]	< 50 nM	< 50 nM
C=CC(=O)Nc1cc(Nc2cc(N3OCC[C@@H]3c3cc(F)cc(Oc4ccn(C)n4)c3)ncn2)c(OC)cc1N1CCC(N2CCN(C3CC3)CC2)CC1 [Example 219, (R)-N-(2-(4-(4-cyclopropylpiper-azin-1-yl)piper-idin-1-yl)-5-((6-(3-(3-fluoro-5-((1-methyl-1H-pyr-azol-3-yl)oxy)-phenyl)isoxazol-idin-2-yl)pyrim-idin-4-yl)amino)-4-methoxyphen-yl)acrylamide]	< 50 nM	< 50 nM
C=CC(=O)Nc1cc(Nc2cc(N3OCC[C@@H]3c3cccc(Oc4cc(F)cc(F)c4)c3)ncn2)c(OC)cc1N1CCN(C)CC1 [Example 225, (R)-N-(5-((6-(3-(3-(3,5-difluoro-phenoxy)phenyl)-isoxazolidin-2-yl)pyrimidin-4-yl)amino)-4-methoxy-2-(4-methylpiperazin-1-yl)phenyl)-acrylamide]	< 50 nM	< 50 nM
C=CC(=O)Nc1cc(Nc2cc(N3OCC[C@@H]3c3cccc(OCc4ccccc4)c3)ncn2)c(OC)cc1N(C)CCN(C)C [Example 227, (R)-N-(5-((6-(3-(3-(benzyloxy)-phenyl)isoxazol-idin-2-yl)pyrim-idin-4-yl)amino)-2-((2-(dimethyl-amino)ethyl)-(methyl)amino)-4-methoxyphen-yl)acrylamide]	< 50 nM	< 50 nM
C=CC(=O)Nc1cc(Nc2cc(N3OCC[C@@H]3c3cccc(-c4cccc(F)c4F)c3)ncn2)c(OC)cc1N1CCN(C2COC2)CC1 [Example 340, (R)-N-(5-((6-(3-(2′,3′-difluoro-[1,1′-biphenyl]-3-yl)isoxazolidin-2-yl)pyrimidin-4-yl)-amino)-4-methoxy-2-(4-(oxetan-3-yl)-piperazin-1-yl)-phenyl)acrylamide]	–	< 50 nM
C=CC(=O)Nc1cc(Nc2cc(N3OCC[C@@H]3c3cccc(-c4cccc(C(=O)N(C)C)c4)c3)ncn2)c(OC)cc1N1CCN(C)CC1 [Example 342, (R)-3′-(2-(6-((5-acrylamido-2-methoxy-4-(4-methylpiperazin-1-yl)phenyl)-amino)pyrimidin-4-yl)isoxazolidin-3-yl)-N,N-dimeth-yl-[1,1′-biphenyl]-3-carboxamide]	–	< 50 nM

Now from value to compound:

GI50 (SK-BR-3 cancer cells)	GI50 (BT-474 cancer cells)	Compound
< 50 nM	< 50 nM	C=CCN1CCN(c2cc(OC)c(Nc3cc(N4OCC[C@@H]4c4cccc(-c5ccccc5)c4)ncn3)cc2NC(=O)C=C)CC1 [Example 174, (R)-N-(5-((6-(3-([1,1′-biphenyl]-3-yl)isoxazolidin-2-yl)pyrimidin-4-yl)amino)-2-(4-allylpiperazin-1-yl)-4-methoxy-phenyl)acrylamide]
< 50 nM	< 50 nM	C=CC(=O)Nc1cc(Nc2cc(N3OCC[C@@H]3c3cccc(-c4ccccc4)c3)ncn2)c(OC)cc1N1CCO[C@@H](C)C1 [Example 175, N-(5-((6-((R)-3-([1,1′-biphenyl]-3-yl)isoxazolidin-2-yl)pyrimidin-4-yl)-amino)-4-methoxy-2-((S)-2-methyl-morpholino)phen-yl)acrylamide]
50 to 500 nM	50 to 500 nM	C=CC(=O)Nc1cc(Nc2cc(N3OCCC3c3cccc(-c4ccc(C)s4)c3)ncn2)c(OC)cc1N(C)CCN(C)C (stereo not drawn) [Example 213, N-(2-((2-(dimeth-ylamino)ethyl)-(methyl)amino)-4-methoxy-5-((6-(3-(3-(5-methylthio-phen-2-yl)phenyl)-isoxazolidin-2-yl)-pyrimidin-4-yl)-amino)phenyl)-acrylamide]
< 50 nM	< 50 nM	C=CC(=O)Nc1cc(Nc2cc(N3OCC[C@@H]3c3cccc(-c4ccccc4)c3)ncn2)c(OC)cc1N1CCN(CC)CC1 [Example 216, (R)-N-(5-((6-(3-([1,1′-biphenyl]-3-yl)isoxazolidin-2-yl)pyrimidin-4-yl)-amino)-2-(4-ethyl-piperazin-1-yl)-4-methoxyphenyl)-acrylamide]
< 50 nM	< 50 nM	C=CC(=O)Nc1cc(Nc2cc(N3OCC[C@@H]3c3cc(F)cc(Oc4cccc(F)c4)c3)ncn2)c(OC)cc1N1CCN(C)[C@H](C)C1 [Example 221, N-(2-((R)-3,4-dimethylpiper-azin-1-yl)-5-((6-((R)-3-(3-fluoro-5-(3-fluorophen-oxy)phenyl)-isox-azolidin-2-yl)pyr-imidin-4-yl)-amino)-4-methoxy-phenyl)acrylamide]
< 50 nM	< 50 nM	C=CC(=O)Nc1cc(Nc2cc(N3OCC[C@@H]3c3cc(F)cc(Oc4cccc(F)c4)c3)ncn2)c(OC)cc1N1CCN(C)[C@@H](C)C1 [Example 223, N-(2-((S)-3,4-dimethylpiperazin-1-yl)-5-((6-((R)-3-(3-fluoro-5-(3-fluorophenoxy)-phenyl)isoxazol-idin-2-yl)pyrim-idin-4-yl)amino)-4-methoxyphen-yl)acrylamide]
< 50 nM	< 50 nM	C=CC(=O)Nc1cc(Nc2cc(N3OCC[C@@H]3c3cc(F)cc(Oc4cccc(F)c4)c3)ncn2)c(OC)cc1N1CCC(N(C)C)CC1 [Example 224, (R)-N-(2-(4-(dimethylamino)-piperidin-1-yl)-5-((6-(3-(3-fluoro-5-(3-fluorophenoxy)-phenyl)isoxazol-idin-2-yl)pyrim-idin-4-yl)amino)-4-methoxyphen-yl)acrylamide]
–	< 50 nM	C=CC(=O)Nc1cc(Nc2cc(N3OCC[C@@H]3c3cccc(-c4cccc(F)c4)c3)ncn2)c(OC)cc1N1CC2(C1)CN(C1COC1)C2 [Example 341, (R)-N-(5-((6-(3-(3′-fluoro-[1,1′-biphenyl]-3-yl)-isoxazolidin-2-yl)-pyrimidin-4-yl)-amino)-4-methoxy-2-(6-(oxetan-3-yl)-2,6-diazaspiro-[3.3]heptan-2-yl)-phenyl)acrylamide]
–	< 50 nM	C=CC(=O)Nc1cc(Nc2cc(N3OCC[C@@H]3c3cccc(-c4cccc(F)c4)c3)ncn2)c(OC)cc1N1CCC2(CC1)CN(C)C2 [Example 343, (R)-N-(5-((6-(3-(3′-fluoro-[1,1′-biphenyl]-3-yl)-isoxazolidin-2-yl)-pyrimidin-4-yl)-amino)-4-methoxy-2-(2-methyl-2,7-diazaspiro[3.5]-nonan-7-yl)phen-yl)acrylamide]
